Where two headings read alike, the source gives them in different places. One block for each compound: values may come before it. Numbered stars: 1 amine (or outer) side, 2 acyl side, 3 side chain; on linkers, the order of the positions; unused ones are H or OH. Bridge positions count the residues as written; N and C are the ends. Square brackets hold non-standard residues; d marks the D form. Peptide text beside a SMILES is read from it. * marks the point of attachment. C20 diacid = O=C(O)CCCCCCCCCCCCCCCCCCC(=O)*; γGlu = O=C(O)[C@H](CCC(=O)[*:2])N[*:1]; Hyp = O=C(O)[C@@H]1C[C@@H](O)CN1
What was measured:
[1] = Weight loss effect of dosage of derivatives in SD rats (Example 6); type: in vivo; conditions: subcutaneous
Description: SD rats obtained by the same method as in Example 5 were used in this experimental study. There were an experimental group C: C1 to C13, and an experimental group D: D1 to D7, with 5 to 8 rats in each group of the derivative test, and according to administration schemes as shown in Table 11 and Table 12, the rats in each group […] The administration time of each group was recorded. After administration, the rats were put back into their cages in which the rats could get food and water. Food consumption and weight changes of the rats were recorded every 24 hours by online recording or manual recording. Weight and cumulative food intake changes of the SD rats in each group were as shown in FIG. 3A to FIG. 3D, FIG. 4A to FIG. 4B, Table 11 and Table 12.

[2] = type: physicochemical; conditions: 40° C.
Description: The penicillin bottle after covering was placed in a stability test box at 40° C. Before testing, a sample was centrifuged at 10,000 rpm and 4° C. for 3 minutes, and a supernatant was taken and added into a liquid-phase sample injection bottle. The sample was detected by the liquid phase method in Example 3.

[3] = Weight loss efficacy of derivatives in SD rats (Example 5); type: in vivo, SD (Sprague Dawley) rats; conditions: subcutaneous, 30 nmol/kg
From the text: SD (Sprague Dawley) rats weighing 200 g to 250 g were selected for this experimental study. Before the experiment, the rats arrived for at least 10 days to 14 days to adapt to the experimental environment. During this period, the rats were fed for two weeks in a reversed light/dark stage (meaning that the light was turned off during the day and turned on during the night) after arrival, and were fed separately in the first week of arrival to ensure accurate data and high test sensitivity, and the rats were free to obtain food and water during the whole adaptation period and experimental period. There were an experimental group [NT]5 and A6, and an experimental group B: B1, B2, B3, B4 and B5, with 5 to 8 rats in each treatment group of the derivative, and the rats in each group were subcutaneously administered with a derivative or a solvent by a dosage of 30 nmol/kg. The administration time of each group was recorded. After administration, the rats were put back into their cages in which the rats could get food and water. Food consumption and weight changes of the rats were recorded every 24 hours by online recording or manual recording. Weight and food intake changes of the SD rats in each group were as shown in FIG. 2A to FIG. 2D, Table 9 and Table 10.

human amylin receptor = biological target: T1, human amylin receptor (Homo sapiens, UniProt O60896+P30988); assay: Luciferase assay of amylin derivatives in amylin receptor/CRE-luc CHO cell line; type: cell-based; conditions: 24 hours incubation, F12 medium containing 10% FBS
T1 construct: host or cells: CHO-K1/Ga15/AMY3 cells, further stably transfected with a CRE-luciferase plasmid
T1 sequence (P30988 25-474): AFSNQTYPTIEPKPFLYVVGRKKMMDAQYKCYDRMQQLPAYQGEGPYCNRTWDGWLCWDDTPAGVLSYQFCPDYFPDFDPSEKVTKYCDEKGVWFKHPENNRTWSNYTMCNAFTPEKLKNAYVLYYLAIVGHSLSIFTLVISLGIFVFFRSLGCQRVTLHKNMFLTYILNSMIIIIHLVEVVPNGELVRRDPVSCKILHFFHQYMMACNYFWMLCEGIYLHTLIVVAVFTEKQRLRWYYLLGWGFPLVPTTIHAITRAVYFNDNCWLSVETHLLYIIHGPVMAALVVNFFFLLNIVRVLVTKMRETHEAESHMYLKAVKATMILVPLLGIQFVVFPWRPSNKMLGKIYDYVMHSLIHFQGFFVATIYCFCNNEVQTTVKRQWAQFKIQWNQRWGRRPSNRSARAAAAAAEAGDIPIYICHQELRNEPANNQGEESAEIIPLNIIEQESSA
T1 sequence (O60896 24-148 partner): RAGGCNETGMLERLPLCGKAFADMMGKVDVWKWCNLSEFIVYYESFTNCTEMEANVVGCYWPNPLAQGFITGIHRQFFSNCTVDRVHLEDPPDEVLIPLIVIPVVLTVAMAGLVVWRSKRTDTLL
Description: The experiment was intended to detect the activity or efficacy of the amylin derivatives on a human amylin receptor in vitro by luciferase assay.
50 μL of growth medium (F12 medium containing 10% FBS) was added into each well of a white 96-well plate, and the stably transfected amylin/CRE-lue CHO cells were inoculated into the white 96-well plate at a density of about 20,000 cells/well for activity determination.

[4] = Freeze-thaw stability of derivatives (freeze-thaw yield by liquid chromatography); type: physicochemical
Method in brief: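 Lyophilised peptide derivative dissolved at 0.2 mg/ml in 20 mM phosphate buffer, pH 7.0, frozen overnight at −20° C, then thawed at room temperature. Peptide concentration before and after freeze-thaw measured by reversed-phase HPLC on centrifuged supernatant; yield = post-thaw/pre-thaw concentration.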

[5] = experimental group C, 10 nmol/kg
[6] = experimental group C, 30 nmol/kg
[7] = experimental group C, 100 nmol/kg
[8] = experimental group D, 10 nmol/kg
[9] = experimental group D, 30 nmol/kg
[10] = experimental group D, 100 nmol/kg
[11] = CHO-K1/Ga15/AMY3 CRE-luc cells, read-out: EC50

SMILES: CC[C@H](C)[C@H](NC(=O)[C@@H]1CCCN1C(=O)CNC(=O)[C@H](Cc1ccccc1)NC(=O)[C@H](CC(N)=O)NC(=O)[C@H](CC(N)=O)NC(=O)[C@H](CO)NC(=O)[C@H](CO)NC(=O)[C@H](Cc1c[nH]cn1)NC(=O)[C@H](CCCNC(=N)N)NC(=O)[C@H](CC(C)C)NC(=O)[C@H](Cc1ccccc1)NC(=O)[C@H](CCC(=O)O)NC(=O)[C@H](C)NC(=O)[C@H](CC(C)C)NC(=O)[C@H](CCCNC(=N)N)NC(=O)[C@H](CCC(N)=O)NC(=O)[C@@H](NC(=O)[C@H](C)NC(=O)[C@@H]1CSSC[C@H](NC(=O)[C@H](CCCCN)NC(=O)CC[C@H](NC(=O)CCCCCCCCCCCCCCCCCCC(=O)O)C(=O)O)C(=O)N[C@@H](CC(N)=O)C(=O)N[C@@H]([C@@H](C)O)C(=O)N[C@@H](C)C(=O)N[C@@H]([C@@H](C)O)C(=O)N1)[C@@H](C)O)C(=O)N[C@@H](CC(C)C)C(=O)N1CCC[C@H]1C(=O)N1CCC[C@H]1C(=O)N[C@H](C(=O)N[C@@H](CC(N)=O)C(=O)N[C@H](C(=O)NCC(=O)N[C@@H](CO)C(=O)N[C@@H](CC(N)=O)C(=O)N[C@H](C(=O)N1CCC[C@H]1C(N)=O)[C@@H](C)O)C(C)C)[C@@H](C)O [PD065, Cagrilintide]
Cumulative food intake at 72nd hour [1, 5]: 78.31 g
Weight change rate at 72nd hour [1, 5]: 1.59%
Cumulative food intake at 72nd hour [1, 6]: 60.22 g
Weight change rate at 72nd hour [1, 6]: 0.46%
Cumulative food intake at 72nd hour [1, 7]: 44.41 g
Weight change rate at 72nd hour [1, 7]: −6.61%
Cumulative food intake at 72nd hour [1, 8]: 64.27 g
Weight change rate at 72nd hour [1, 8]: 5.95%
Cumulative food intake at 72nd hour [1, 9]: 48.00 g
Weight change rate at 72nd hour [1, 9]: 2.81%
Cumulative food intake at 72nd hour [1, 10]: 33.89 g
Weight change rate at 72nd hour [1, 10]: −3.81%
Decrease percentage of protein concentration ([2]; pH about 7.4, 0 d): 0.00%
Protein concentration ([2]; pH about 7.4, 0 d): 0.81 mg/mL
Decrease percentage of protein concentration ([2]; pH about 7.4, 7 d): 22.35%
Protein concentration ([2]; pH about 7.4, 7 d): 0.63 mg/mL
Decrease percentage of protein concentration ([2]; pH about 7.4, 15 d): 46.78%
Protein concentration ([2]; pH about 7.4, 15 d): 0.43 mg/mL
Weight change rate at 48th hour ([3]; experimental group A): −6.13
Weight change rate at 48th hour ([3]; experimental group B): −6.74
EC50 (human amylin receptor; EC50, CHO-K1/Ga15/AMY3 CRE-luc cells): 0.038 nM
Dissolution property ([4]; appearance after dissolution at 0.2 mg/ml in 20 mM phosphate buffer solution (PB) (pH 7.0)): Clear
Freeze storage property ([4]; appearance after overnight storage at −20° C. and thawing to room temperature, 0.2 mg/ml in 20 mM PB (pH 7.0)): Clear
Freeze storage yield ([4]; concentration of polypeptide after freezing and thawing / concentration before, by liquid chromatography, −20° C. overnight): 93.44%

EC50 (human amylin receptor; [11]): 0.022 nM
SMILES: CC[C@H](C)[C@H](NC(=O)[C@@H]1CCCN1C(=O)[C@H](CCCNC(=N)N)NC(=O)[C@H](CC(C)C)NC(=O)[C@H](CC(N)=O)NC(=O)[C@H](CC(N)=O)NC(=O)[C@H](CO)NC(=O)[C@H](CO)NC(=O)[C@H](Cc1c[nH]cn1)NC(=O)[C@H](CCCNC(=N)N)NC(=O)[C@H](CC(C)C)NC(=O)[C@H](Cc1ccccc1)NC(=O)[C@H](CC(=O)O)NC(=O)[C@H](C)NC(=O)[C@H](CC(C)C)NC(=O)[C@H](CCCNC(=N)N)NC(=O)[C@H](CCC(N)=O)NC(=O)[C@@H](NC(=O)[C@H](C)NC(=O)[C@@H]1CSSC[C@H](NC(=O)[C@H](CCCCN)NC(=O)CC[C@H](NC(=O)CCCCCCCCCCCCCCCCCCC(=O)O)C(=O)O)C(=O)N[C@@H](CC(N)=O)C(=O)N[C@@H]([C@@H](C)O)C(=O)N[C@@H](C)C(=O)N[C@@H]([C@@H](C)O)C(=O)N1)[C@@H](C)O)C(=O)N[C@@H](CC(C)C)C(=O)N1CCC[C@H]1C(=O)N1CCC[C@H]1C(=O)N[C@H](C(=O)N[C@@H](CC(N)=O)C(=O)N[C@H](C(=O)NCC(=O)N[C@@H](CO)C(=O)N[C@@H](CC(N)=O)C(=O)N[C@H](C(=O)N1C[C@H](O)C[C@H]1C(N)=O)[C@@H](C)O)C(C)C)[C@@H](C)O [PD158] ({C20 diacid-γGlu}-KCNTATCATQRLADFLRHSSNNLRPILPPTNVGSNT[Hyp]-NH2; disulfide 2-7 (inferred))
Weight change rate at 48th hour ([3]; experimental group B): −8.37

EC50 (human amylin receptor; [11]): 0.035 nM
SMILES: CC[C@H](C)[C@H](NC(=O)[C@@H]1CCCN1C(=O)[C@H](CCCCN)NC(=O)[C@H](CC(C)C)NC(=O)[C@H](CC(N)=O)NC(=O)[C@H](CC(N)=O)NC(=O)[C@H](CO)NC(=O)[C@H](CO)NC(=O)[C@H](Cc1c[nH]cn1)NC(=O)[C@H](CCCNC(=N)N)NC(=O)[C@H](CC(C)C)NC(=O)[C@H](Cc1ccccc1)NC(=O)[C@H](CC(=O)O)NC(=O)[C@H](C)NC(=O)[C@H](CC(C)C)NC(=O)[C@H](CCCNC(=N)N)NC(=O)[C@H](CCC(N)=O)NC(=O)[C@@H](NC(=O)[C@H](C)NC(=O)[C@@H]1CSSC[C@H](NC(=O)[C@H](CCCCN)NC(=O)CC[C@H](NC(=O)CCCCCCCCCCCCCCCCCCC(=O)O)C(=O)O)C(=O)N[C@@H](CC(N)=O)C(=O)N[C@@H]([C@@H](C)O)C(=O)N[C@@H](C)C(=O)N[C@@H]([C@@H](C)O)C(=O)N1)[C@@H](C)O)C(=O)N[C@@H](CC(C)C)C(=O)N1CCC[C@H]1C(=O)N1CCC[C@H]1C(=O)N[C@H](C(=O)N[C@@H](CC(N)=O)C(=O)N[C@H](C(=O)NCC(=O)N[C@@H](CO)C(=O)N[C@@H](CC(N)=O)C(=O)N[C@H](C(=O)N1CCC[C@H]1C(N)=O)[C@@H](C)O)C(C)C)[C@@H](C)O [PD160] ({C20 diacid-γGlu}-KCNTATCATQRLADFLRHSSNNLKPILPPTNVGSNTP-NH2; disulfide 2-7 (inferred))
Weight change rate at 48th hour ([3]; experimental group B): −7.87

EC50 (human amylin receptor; [11]): 0.026 nM
SMILES: CC[C@H](C)[C@H](NC(=O)[C@@H]1CCCN1C(=O)[C@H](CCCNC(=N)N)NC(=O)[C@H](CC(C)C)NC(=O)[C@H](CC(N)=O)NC(=O)[C@H](CC(N)=O)NC(=O)[C@H](CO)NC(=O)[C@H](CO)NC(=O)[C@H](Cc1c[nH]cn1)NC(=O)[C@H](CCCNC(=N)N)NC(=O)[C@H](CC(C)C)NC(=O)[C@H](Cc1ccccc1)NC(=O)[C@H](CC(=O)O)NC(=O)[C@H](C)NC(=O)[C@H](CC(C)C)NC(=O)[C@H](CCCNC(=N)N)NC(=O)[C@H](CCC(N)=O)NC(=O)[C@@H](NC(=O)[C@H](C)NC(=O)[C@@H]1CSSC[C@H](NC(=O)[C@H](CCCCN)NC(=O)CC[C@H](NC(=O)CCCCCCCCCCCCCCCCCCC(=O)O)C(=O)O)C(=O)N[C@@H](CC(N)=O)C(=O)N[C@@H]([C@@H](C)O)C(=O)N[C@@H](C)C(=O)N[C@@H]([C@@H](C)O)C(=O)N1)[C@@H](C)O)C(=O)N[C@@H](CC(C)C)C(=O)N1CCC[C@H]1C(=O)N1CCC[C@H]1C(=O)N[C@H](C(=O)N[C@@H](CC(N)=O)C(=O)N[C@H](C(=O)NCC(=O)N[C@@H](CO)C(=O)N[C@@H](CC(N)=O)C(=O)N[C@H](C(=O)N1CCC[C@H]1C(N)=O)[C@@H](C)O)C(C)C)[C@@H](C)O [PD161] ({C20 diacid-γGlu}-KCNTATCATQRLADFLRHSSNNLRPILPPTNVGSNTP-NH2; disulfide 2-7 (inferred))
Weight change rate at 48th hour ([3]; experimental group B): −7.81

Source: US20260166128A1, “HUMAN AMYLIN ANALOG, AND DERIVATIVE THEREOF AND USE THEREOF” (priority 2022, published 2026)
